From ChEMBL document CHEMBL1201862, “PubChem BioAssay data set” (2004)
Calls of active or inactive are those of the source.

Tests used:
Format in all cases: functional
[1] = biological target: Serine/threonine-protein kinase PLK3 (Homo sapiens, UniProt Q9H4B4)
[2] = biological target: 3-phosphoinositide-dependent protein kinase 1 (Homo sapiens, UniProt O15530);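 note: value comes from the Navigating the Kinome panel, PDPK1 member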
[3] = biological target: Mitogen-activated protein kinase 13 (Homo sapiens, UniProt O15264)
[4] = biological target: G protein-coupled receptor kinase 5 (Homo sapiens, UniProt P34947); experiment: Navigating the Kinome. Panel member name: GPRK5
[5] = biological target: Homeodomain-interacting protein kinase 4 (Homo sapiens, UniProt Q8NE63)
[6] = biological target: Fibroblast growth factor receptor 3 (Homo sapiens, UniProt P22607)
[7] = biological target: Receptor tyrosine-protein kinase erbB-4 (Homo sapiens, UniProt Q15303);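 note: ERBB4 member of a kinome-wide kinase profiling panel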
[8] = biological target: Protein kinase C gamma type (Homo sapiens, UniProt P05129)
[9] = biological target: Homeodomain-interacting protein kinase 2 (Homo sapiens, UniProt Q9H2X6);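 note: measured within a kinome-wide kinase profiling panel, HIPK2 being one panel member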
[10] = biological target: Vascular endothelial growth factor receptor 3 (Homo sapiens, UniProt P35916);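 note: value from a kinome-wide profiling panel, with FLT4 as the panel member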
[11] = biological target: Serine/threonine-protein kinase PAK 4 (Homo sapiens, UniProt O96013);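 note: value obtained within a kinome profiling panel in which PAK4 was one of the panel members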
[12] = biological target: Ribosomal protein S6 kinase alpha-3 (Homo sapiens, UniProt P51812);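 note: measured within a kinome-wide profiling panel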
[13] = biological target: Cyclin-dependent kinase 9 (Homo sapiens, UniProt P50750);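 note: value from the CDK9 entry of a kinome-spanning kinase panel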
[14] = biological target: Serine/threonine-protein kinase TBK1 (Homo sapiens, UniProt Q9UHD2); experiment: Navigating the Kinome. Panel member name: TBK1
Aurora kinase A = Aurora kinase A (Homo sapiens, UniProt O14965);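 note: value from the Navigating the Kinome kinase panel profiling, panel entry STK6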
[15] = biological target: Tyrosine-protein kinase Fyn (Homo sapiens, UniProt P06241)
[16] = biological target: Dual specificity protein kinase CLK4 (Homo sapiens, UniProt Q9HAZ1)
[17] = biological target: Receptor-type tyrosine-protein kinase FLT3 (Homo sapiens, UniProt P36888);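 note: FLT3 was tested as one member of a kinome-wide kinase panel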
[18] = biological target: Leucine-rich repeat serine/threonine-protein kinase 2 (Homo sapiens, UniProt Q5S007);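 note: value from a broad kinome-wide panel profiling study in which LRRK2 was one of the kinases tested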
[19] = biological target: Proto-oncogene tyrosine-protein kinase receptor Ret (Homo sapiens, UniProt P07949);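 note: measured within a kinome-wide profiling panel, RET as the panel member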
[20] = biological target: Hepatocyte growth factor receptor (Homo sapiens, UniProt P08581);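 note: kinase panel profiling across the kinome, with MET as the panel member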
[21] = biological target: STE20-like serine/threonine-protein kinase (Homo sapiens, UniProt Q9H2G2)
[22] = biological target: Mitogen-activated protein kinase 1 (Homo sapiens, UniProt P28482)
[23] = biological target: MAP kinase-interacting serine/threonine-protein kinase 2 (Homo sapiens, UniProt Q9HBH9)
[24] = biological target: Mitogen-activated protein kinase 9 (Homo sapiens, UniProt P45984);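 note: value from a kinome panel profiling assay, MAPK9 panel entry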
[25] = biological target: Serine/threonine-protein kinase PLK4 (Homo sapiens, UniProt O00444);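 note: PLK4 measured as one member of a kinome-wide kinase profiling panel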
[26] = biological target: Mitogen-activated protein kinase 12 (Homo sapiens, UniProt P53778);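 note: measured as one member of a kinome-wide kinase profiling panel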
[27] = biological target: Protein kinase C iota type (Homo sapiens, UniProt P41743);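 note: measured within a kinome-wide kinase panel, PRKCI as panel member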
[28] = biological target: Casein kinase I isoform gamma-1 (Homo sapiens, UniProt Q9HCP0);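 note: measured as the CSNK1G1 member of a kinome profiling panel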
[29] = biological target: T1, Sentrin-specific protease 6 (Homo sapiens, UniProt Q9GZR1);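 note: Luminescence-based dose-response confirmatory assay of SENP6 inhibition, following up an ultra-high-throughput screen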
T1 sequence (Q9GZR1 whole entry): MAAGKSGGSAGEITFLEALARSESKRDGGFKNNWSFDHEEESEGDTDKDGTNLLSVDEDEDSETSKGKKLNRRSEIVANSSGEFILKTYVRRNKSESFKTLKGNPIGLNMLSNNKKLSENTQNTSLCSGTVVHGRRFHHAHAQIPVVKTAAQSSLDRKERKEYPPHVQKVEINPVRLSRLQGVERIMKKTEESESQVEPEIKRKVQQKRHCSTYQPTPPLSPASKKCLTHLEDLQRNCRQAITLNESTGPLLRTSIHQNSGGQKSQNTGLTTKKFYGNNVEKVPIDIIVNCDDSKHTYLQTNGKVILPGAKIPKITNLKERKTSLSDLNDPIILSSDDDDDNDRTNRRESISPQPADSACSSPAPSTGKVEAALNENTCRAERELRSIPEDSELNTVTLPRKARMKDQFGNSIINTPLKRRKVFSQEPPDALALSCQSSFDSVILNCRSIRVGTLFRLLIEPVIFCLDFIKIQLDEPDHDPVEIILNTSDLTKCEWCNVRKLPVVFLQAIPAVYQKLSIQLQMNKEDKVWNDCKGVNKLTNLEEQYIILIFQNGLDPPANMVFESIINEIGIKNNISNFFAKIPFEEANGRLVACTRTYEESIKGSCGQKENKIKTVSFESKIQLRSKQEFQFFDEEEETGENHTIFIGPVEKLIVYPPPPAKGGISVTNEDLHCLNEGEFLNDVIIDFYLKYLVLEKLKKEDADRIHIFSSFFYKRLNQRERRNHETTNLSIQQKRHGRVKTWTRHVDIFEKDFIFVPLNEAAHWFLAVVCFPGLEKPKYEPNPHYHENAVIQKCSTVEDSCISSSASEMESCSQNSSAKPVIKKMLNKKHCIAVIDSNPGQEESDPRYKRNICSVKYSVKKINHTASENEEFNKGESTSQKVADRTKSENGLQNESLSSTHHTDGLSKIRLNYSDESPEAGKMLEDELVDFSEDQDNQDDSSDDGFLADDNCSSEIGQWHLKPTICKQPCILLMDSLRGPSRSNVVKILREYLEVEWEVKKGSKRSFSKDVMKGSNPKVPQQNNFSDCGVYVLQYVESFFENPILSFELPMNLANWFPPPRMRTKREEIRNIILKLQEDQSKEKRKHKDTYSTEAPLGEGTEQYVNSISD

H4 = experiment: Luminescence Cell-Based Dose Response HTS to Identify Activators of 5'UTR Stem-Loop Driven Prion Protein mRNA Translation in H4 Neuroglioblastoma Cells. [Related pubchem assays: 1829 (Project Summary), 1814 (Primary HTS)]; conditions: Homo sapiens

Chain of Proto-oncogene tyrosine-protein kinase receptor Ret (P07949 whole entry): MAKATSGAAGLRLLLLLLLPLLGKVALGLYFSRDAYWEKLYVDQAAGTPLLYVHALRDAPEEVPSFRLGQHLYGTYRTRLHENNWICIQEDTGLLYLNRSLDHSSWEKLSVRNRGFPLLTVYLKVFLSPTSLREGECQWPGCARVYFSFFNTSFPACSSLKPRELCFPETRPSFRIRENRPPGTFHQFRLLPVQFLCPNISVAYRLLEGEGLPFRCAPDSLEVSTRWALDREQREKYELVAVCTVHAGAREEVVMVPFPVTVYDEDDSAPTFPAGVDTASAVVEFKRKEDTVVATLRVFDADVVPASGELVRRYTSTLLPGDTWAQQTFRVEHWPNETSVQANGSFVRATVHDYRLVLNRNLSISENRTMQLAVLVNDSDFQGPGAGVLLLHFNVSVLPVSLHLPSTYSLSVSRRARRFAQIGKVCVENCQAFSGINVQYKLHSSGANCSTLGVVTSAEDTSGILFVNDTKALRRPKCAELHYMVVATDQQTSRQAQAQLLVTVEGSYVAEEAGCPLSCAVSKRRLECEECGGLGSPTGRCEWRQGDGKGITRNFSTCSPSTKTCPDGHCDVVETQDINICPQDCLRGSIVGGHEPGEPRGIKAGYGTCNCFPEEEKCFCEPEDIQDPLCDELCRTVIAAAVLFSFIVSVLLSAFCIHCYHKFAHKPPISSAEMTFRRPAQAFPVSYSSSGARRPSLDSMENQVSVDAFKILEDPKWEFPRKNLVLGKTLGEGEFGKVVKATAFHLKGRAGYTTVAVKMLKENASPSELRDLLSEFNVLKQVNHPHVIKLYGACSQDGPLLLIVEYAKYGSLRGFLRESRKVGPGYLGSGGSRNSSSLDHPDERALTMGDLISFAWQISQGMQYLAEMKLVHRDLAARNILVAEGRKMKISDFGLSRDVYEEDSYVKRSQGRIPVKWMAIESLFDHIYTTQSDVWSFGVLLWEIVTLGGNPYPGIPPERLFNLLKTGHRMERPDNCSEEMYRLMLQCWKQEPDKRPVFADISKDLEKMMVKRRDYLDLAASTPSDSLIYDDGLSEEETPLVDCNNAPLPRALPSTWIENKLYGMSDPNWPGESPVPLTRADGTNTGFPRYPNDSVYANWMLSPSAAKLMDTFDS
Chain of Homeodomain-interacting protein kinase 2 (Q9H2X6 whole entry): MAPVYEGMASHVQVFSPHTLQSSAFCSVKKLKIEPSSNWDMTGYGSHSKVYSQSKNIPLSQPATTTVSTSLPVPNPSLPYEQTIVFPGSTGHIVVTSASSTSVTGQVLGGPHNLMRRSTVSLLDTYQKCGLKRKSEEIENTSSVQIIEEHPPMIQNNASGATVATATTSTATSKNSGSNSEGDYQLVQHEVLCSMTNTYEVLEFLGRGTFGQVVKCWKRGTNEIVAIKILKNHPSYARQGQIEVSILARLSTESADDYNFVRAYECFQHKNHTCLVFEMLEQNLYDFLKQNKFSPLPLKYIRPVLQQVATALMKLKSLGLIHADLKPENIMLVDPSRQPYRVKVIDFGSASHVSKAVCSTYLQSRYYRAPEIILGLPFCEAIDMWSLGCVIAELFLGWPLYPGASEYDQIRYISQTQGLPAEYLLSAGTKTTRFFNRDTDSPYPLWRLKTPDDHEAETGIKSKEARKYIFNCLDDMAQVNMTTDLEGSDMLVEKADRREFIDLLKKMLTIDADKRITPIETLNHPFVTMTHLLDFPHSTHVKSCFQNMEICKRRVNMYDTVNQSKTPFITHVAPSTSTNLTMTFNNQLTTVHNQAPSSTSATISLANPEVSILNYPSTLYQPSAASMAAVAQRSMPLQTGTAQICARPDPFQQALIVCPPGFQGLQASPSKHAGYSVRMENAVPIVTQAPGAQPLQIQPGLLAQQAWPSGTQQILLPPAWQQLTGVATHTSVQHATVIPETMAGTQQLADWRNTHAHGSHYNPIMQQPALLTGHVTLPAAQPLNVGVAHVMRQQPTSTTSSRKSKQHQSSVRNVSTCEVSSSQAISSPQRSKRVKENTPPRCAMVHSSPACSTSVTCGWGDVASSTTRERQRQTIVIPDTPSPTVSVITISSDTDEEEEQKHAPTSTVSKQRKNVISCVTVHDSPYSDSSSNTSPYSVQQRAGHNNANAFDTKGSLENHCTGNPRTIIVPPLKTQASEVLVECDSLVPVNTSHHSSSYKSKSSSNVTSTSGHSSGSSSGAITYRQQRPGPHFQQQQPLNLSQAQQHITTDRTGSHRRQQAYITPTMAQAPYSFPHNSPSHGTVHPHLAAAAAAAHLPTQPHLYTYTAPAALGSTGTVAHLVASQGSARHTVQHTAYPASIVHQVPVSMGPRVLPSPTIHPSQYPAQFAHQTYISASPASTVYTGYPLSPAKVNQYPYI
Chain of 3-phosphoinositide-dependent protein kinase 1 (O15530 whole entry): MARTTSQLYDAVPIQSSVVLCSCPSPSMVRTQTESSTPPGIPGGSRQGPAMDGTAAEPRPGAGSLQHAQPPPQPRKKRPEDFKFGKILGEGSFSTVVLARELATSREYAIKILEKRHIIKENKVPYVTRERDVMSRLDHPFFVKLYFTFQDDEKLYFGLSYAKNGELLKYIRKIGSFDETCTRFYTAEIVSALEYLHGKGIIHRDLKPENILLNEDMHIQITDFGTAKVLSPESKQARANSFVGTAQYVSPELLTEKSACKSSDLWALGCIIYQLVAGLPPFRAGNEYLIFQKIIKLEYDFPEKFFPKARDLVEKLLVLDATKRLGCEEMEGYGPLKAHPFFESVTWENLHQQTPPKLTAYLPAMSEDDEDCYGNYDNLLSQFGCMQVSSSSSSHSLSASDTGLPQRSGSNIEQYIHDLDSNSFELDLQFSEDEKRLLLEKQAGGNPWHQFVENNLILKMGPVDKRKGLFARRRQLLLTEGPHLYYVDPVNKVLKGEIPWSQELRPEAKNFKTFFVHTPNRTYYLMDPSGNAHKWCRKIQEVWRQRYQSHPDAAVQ
Chain of Serine/threonine-protein kinase PAK 4 (O96013 whole entry): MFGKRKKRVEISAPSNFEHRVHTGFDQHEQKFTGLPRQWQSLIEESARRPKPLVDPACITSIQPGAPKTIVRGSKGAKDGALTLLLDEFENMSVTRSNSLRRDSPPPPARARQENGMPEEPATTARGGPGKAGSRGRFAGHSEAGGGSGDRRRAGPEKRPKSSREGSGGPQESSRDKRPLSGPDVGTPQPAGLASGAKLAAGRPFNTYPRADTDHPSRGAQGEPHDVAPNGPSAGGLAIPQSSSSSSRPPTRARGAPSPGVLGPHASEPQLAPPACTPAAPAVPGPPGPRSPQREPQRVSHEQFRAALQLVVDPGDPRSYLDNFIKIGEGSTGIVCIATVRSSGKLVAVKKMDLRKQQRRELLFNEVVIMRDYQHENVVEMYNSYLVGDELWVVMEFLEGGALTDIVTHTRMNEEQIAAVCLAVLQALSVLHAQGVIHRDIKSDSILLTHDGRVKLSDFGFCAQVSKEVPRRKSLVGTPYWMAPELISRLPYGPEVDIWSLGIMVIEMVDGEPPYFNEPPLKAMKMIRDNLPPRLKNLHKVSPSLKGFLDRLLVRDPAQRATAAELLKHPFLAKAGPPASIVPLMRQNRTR
Chain of Receptor tyrosine-protein kinase erbB-4 (Q15303 whole entry): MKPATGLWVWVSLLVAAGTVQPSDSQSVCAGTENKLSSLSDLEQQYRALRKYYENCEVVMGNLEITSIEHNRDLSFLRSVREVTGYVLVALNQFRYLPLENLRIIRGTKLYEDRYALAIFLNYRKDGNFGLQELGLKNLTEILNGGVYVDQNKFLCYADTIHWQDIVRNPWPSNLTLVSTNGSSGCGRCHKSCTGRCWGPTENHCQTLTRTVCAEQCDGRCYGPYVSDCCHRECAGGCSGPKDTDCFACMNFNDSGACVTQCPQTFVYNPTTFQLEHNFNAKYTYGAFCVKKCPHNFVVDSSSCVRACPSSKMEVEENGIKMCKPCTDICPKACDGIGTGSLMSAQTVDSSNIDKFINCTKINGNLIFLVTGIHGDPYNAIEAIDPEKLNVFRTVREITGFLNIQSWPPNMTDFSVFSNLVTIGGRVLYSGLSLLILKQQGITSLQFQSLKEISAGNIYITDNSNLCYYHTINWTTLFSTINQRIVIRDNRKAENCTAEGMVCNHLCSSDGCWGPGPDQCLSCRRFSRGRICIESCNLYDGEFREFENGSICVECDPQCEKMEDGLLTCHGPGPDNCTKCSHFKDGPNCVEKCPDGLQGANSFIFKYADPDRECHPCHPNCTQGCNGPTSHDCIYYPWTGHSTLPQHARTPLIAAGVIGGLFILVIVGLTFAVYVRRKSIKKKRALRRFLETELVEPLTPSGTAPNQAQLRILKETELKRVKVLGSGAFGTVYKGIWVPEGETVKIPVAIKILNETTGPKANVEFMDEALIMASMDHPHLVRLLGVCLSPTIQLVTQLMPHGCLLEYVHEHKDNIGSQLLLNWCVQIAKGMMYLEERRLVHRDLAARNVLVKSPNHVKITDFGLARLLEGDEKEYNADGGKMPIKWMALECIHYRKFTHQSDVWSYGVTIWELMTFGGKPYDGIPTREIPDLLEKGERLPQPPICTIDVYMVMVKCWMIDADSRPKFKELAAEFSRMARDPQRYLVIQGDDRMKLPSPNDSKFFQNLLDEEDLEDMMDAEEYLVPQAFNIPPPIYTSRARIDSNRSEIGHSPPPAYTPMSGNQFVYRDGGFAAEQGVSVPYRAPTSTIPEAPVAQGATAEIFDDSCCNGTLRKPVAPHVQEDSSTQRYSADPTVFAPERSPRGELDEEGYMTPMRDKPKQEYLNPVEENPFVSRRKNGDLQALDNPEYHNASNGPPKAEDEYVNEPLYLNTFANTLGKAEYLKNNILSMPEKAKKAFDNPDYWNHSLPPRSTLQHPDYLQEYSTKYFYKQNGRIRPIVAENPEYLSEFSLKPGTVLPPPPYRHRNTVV

## COC(C(=O)N1Cc2[nH]nc(NC(=O)c3ccc(N4CCN(C)CC4)cc3)c2C1)c1ccccc1 (stereo not given)
[1]
  Ki: > 7.94 µM (inactive)
[2]
  Ki: > 3.98 µM (inactive)
[3]
  Ki: > 7.94 µM (inactive)
[4]
  Ki: > 3.98 µM (inactive)
[5]
  Ki: > 7.94 µM (inactive)
[6]
  Ki: 0.0316 µM (active)
[7]
  Ki: > 3.98 µM (inactive)
[8]
  Ki: > 7.94 µM (inactive)
[9]
  Ki: > 3.16 µM (inactive)
[10]
  Ki: 0.158 µM (active)

## CC(C)(O)c1cn(-c2ccc3[nH]ncc3c2)nn1
[11]
  Ki: 100 µM (active)
[12]
  Ki: 39.8 µM (active)
[13]
  Ki: 10 µM (active)
[14]
  Ki: 79.4 µM (active)
Aurora kinase A
  Ki: 25.1 µM (active)
[15]
  Ki: 100 µM (active)
[16]
  Ki: 0.0794 µM (active)
[17]
  Ki: 50.1 µM (active)
[18]
  Ki: 12.6 µM (active)
[19]
  Ki: 25.1 µM (active)

## NC1CCC(Nc2nccc(-c3c[nH]c4ncccc34)n2)CC1 (stereo not given)
[11]
  Ki: 0.316 µM (active)
[20]
  Ki: > 3.16 µM (inactive)
[21]
  Ki: 0.398 µM (active)
[12]
  Ki: 0.00501 µM (active)
[22]
  Ki: 1.58 µM (active)
[23]
  Ki: 0.251 µM (active)
[1]
  Ki: > 7.94 µM (inactive)
[2]
  Ki: 1.26 µM (active)
[24]
  Ki: 0.126 µM (active)
[15]
  Ki: > 0.794 µM (inactive)
[5]
  Ki: 2.51 µM (active)
[25]
  Ki: > 3.98 µM (inactive)
[26]
  Ki: 0.794 µM (active)
[6]
  Ki: > 2 µM (inactive)
[17]
  Ki: 0.0631 µM (active)
[7]
  Ki: > 3.98 µM (inactive)
[8]
  Ki: 0.158 µM (active)
[27]
  Ki: 0.0316 µM (active)
[9]
  Ki: 0.0158 µM (active)
[28]
  Ki: 0.1 µM (active)

## O=C1C2=[N+]([O-])[C@H]3CCCC[C@H]3[N+]([O-])=C2c2ccccc21
[29]
  IC50: 10.2 µM (active)
H4
  EC50: 23.5 µM (active)

## OCc1cc(-c2ccc3[nH]ncc3c2)on1
[20]
  Ki: 31.6 µM (active)
[13]
  Ki: 5.01 µM (active)
[14]
  Ki: 50.1 µM (active)
Aurora kinase A
  Ki: 15.8 µM (active)
[24]
  Ki: 79.4 µM (active)
[16]
  Ki: 0.0316 µM (active)
[18]
  Ki: 3.98 µM (active)
[19]
  Ki: 50.1 µM (active)
